{
  "source": "patent US20090076029A1",
  "about": "(Palatin Technologies, Inc., priority 2007, published 2009)",
  "key": {"mutant L250Q MC4-R": {"tested_on": "T1, mutant L250Q MC4-R", "T1 construct": "expressed in transfected cells", "assay": "Reversal of AgRP inverse agonism in cells expressing mutant L250Q MC4-R", "type": "cell-based, human", "conditions": "HEK-293 cells expressing mutant L250Q MC4 receptors; FIG. 8", "from_the_text": "Expression of recombinant mutant hMC4-R in which a glutamine is exchanged for leucine in amino acid position 250 (L250Q) results in production of increased levels of cAMP in the absence of agonist (Vaisse C. et al., Melanocortin-4 receptor mutations are a frequent and heterogeneous cause of morbid obesity. J Clin Invest 106:253-262, 2000). In some cases, reversal of the inverse agonist activity of AgRP was examined in cells that expressed mutant L250Q MC4-R coupled to a high level of constitutive activity. FIG. 8 illustrates the results obtained with the mutant L250Q MC4-R system."}, "hMC5-R": {"tested_on": "T2, hMC5-R", "T2 construct": "expressed in transfected cells; host or cells: HEK-293", "assay": "cAMP functional assay, HEK-293 cells expressing hMC5-R", "type": "cell-based, human", "conditions": "cAMP assay at 1 μM"}, "MC1-R [1]": {"molecular_target": "T3, MC1-R", "T3 construct": "other: 1 μM compound", "assay": "Competitive inhibition assay using [I125]-NDP-α-MSH, MC1-R membranes", "type": "binding, mouse"}, "MC1-R [2]": {"tested_on": "T4, MC1-R", "T4 construct": "from B-16 mouse melanoma cells (containing MC1-R); endogenous in cells; host or cells: B-16 mouse melanoma cells", "assay": "cAMP functional assay, B-16 mouse melanoma cells expressing MC1-R", "type": "cell-based", "conditions": "cAMP assay at 1 μM"}},
  "data": [
    {"smiles": "CC(C)C[C@@H]1CN(C(=O)[C@H](N)Cc2ccc(Cl)cc2Cl)[C@@H](CCCNC(=N)N)CN1CCc1ccc2ccccc2c1", "note": "[Example 4, N-{3-[1-[2(R)-Amino-3-(2,4-dichloro-phenyl)-propionyl]-5(R)-isobutyl-4-(2-naphthalen-2-yl-ethyl)-piperazin-2(S)-yl]-propyl}-guanidine]", "values": [
      {"measurement": "effect on AgRP-induced decrease in cAMP levels", "setting": "mutant L250Q MC4-R", "result": "reversal of AgRP-induced decrease in the levels of cAMP"},
      {"measurement": "functional status at MC5-R", "setting": "hMC5-R", "result": "partial agonist (intrinsic activity between 0.1 (10%) and 0.7 (70%) is classified as a partial agonist)"},
      {"measurement": "Ki", "setting": "MC1-R [1]", "result": 1360, "unit": "nM"},
      {"measurement": "Inhibition at 1 μM (NDP-α-MSH) MC1-R", "setting": "MC1-R [1]; 1 μM compound", "result": 21, "unit": "%"},
      {"measurement": "functional status at MC1-R", "setting": "MC1-R [2]", "result": "no intrinsic activity (intrinsic activity below 0.1 (10%) is classified as inactive or having no intrinsic activity)"}
    ]}
  ]
}
